Data as given in patent US6462038B1, “Androgen receptor modulator compounds and methods” (Ligand Pharmaceuticals, Inc., priority 1999, dated 2002).

Test system: immature castrated male rat
Experiment: immature castrated male rat model: ventral prostate, seminal vesicle and levator ani growth
Format: in vivo
Conditions: oral; for LA (wet wt) / LA eff (% intact) / SV (wet wt) / SV eff (% intact) / VP (wet wt) / VP eff (% of intact): Table 4, castrated immature rats, once daily, 3 days
Source text: The activity of selected compounds of the present invention as AR agonists was investigated in an immature castrated male rat model, a recognized test of the androgen of a given compound, as described in L. G. Hershberger et al., “Myotrophic Activity of 19-Nortestosterone and Other Steroids Determined by Modified Levator Ani Muscle Method” 83 Proc. Soc. Exptl.
The basis of this assay is the fact that the male sexual accessory organs, such as the prostate and seminal vesicles, play an important role in reproductive function. […] F. Labrie et al. 16 Clin. Invest. […] However, this is not a major pathway, since in both animals and humans, castration leads to almost complete involution of the prostate and seminal vesicles without concomitant adrenalectomy. […] Since the male sex organs are the tissues most responsive to modulation of androgen activity, this model is used to determine the androgen-dependent growth of the sex accessory organs in immature castrated rats. […] Male immature rats ([…], 21-day-old, Sprague-Dawley, Harlan) were castrated under metofane anesthesia. Immediately after surgery, animals groups were dosed for 3 days as follows:
At the end of the 3-day treatment, the animals were sacrificed, and the ventral prostates (VP), seminal vesicles (SV), and levator ani (LA) were collected and weighed. The sexual organ weights were first standardized as mg per 100 g of body weight, and the increase in organ weight induced by the compounds of the present invention was compared to the castrate control animals. […] Super-anova (one factor) was used for statistical analysis.
The gain and loss of sexual organ weights reflect the changes of cell number (DNA content) and cell mass (protein content), depending upon the serum androgen concentration. […] Therefore, measurement of organ wet weights is sufficient to indicate the bioactivity of androgens and androgen antagonists.

## O=c1cc(C(F)(F)F)c2cc3c(cc2[nH]1)OCCN3CC(F)(F)F [Compound 105, 1,2,3,6-Tetrahydro-1-(2,2,2-trifluoroethyl)-9-(trifluoromethyl)-7H-[1,4]oxazino[3,2-g]quinolin-7-one]
3 mg/kg
  LA (wet wt): 33.0 ± 2.4 mg/100 g body weight
  LA eff (% intact): 306 ± 140%
  SV (wet wt): 8.5 ± 0.7 mg/100 g body weight
  SV eff (% intact): 15 ± 13%
  VP (wet wt): 26.9 ± 1.1 mg/100 g body weight
  VP eff (% of intact): 12 ± 5%
10 mg/kg
  LA (wet wt): 36.3 ± 1.3 mg/100 g body weight
  LA eff (% intact): 498 ± 73%
  SV (wet wt): 9.9 ± 0.4 mg/100 g body weight
  SV eff (% intact): 42 ± 8.2%
  VP (wet wt): 35.9 ± 2.7 mg/100 g body weight
  VP eff (% of intact): 52 ± 12%
30 mg/kg
  LA (wet wt): 35.8 ± 1.2 mg/100 g body weight
  LA eff (% intact): 469 ± 71%
  SV (wet wt): 11.7 ± 1.4 mg/100 g body weight
  SV eff (% intact): 78 ± 26%
  VP (wet wt): 30.1 ± 2.1 mg/100 g body weight
  VP eff (% of intact): 26 ± 9%
100 mg/kg
  LA (wet wt): 39.7 ± 0.6 mg/100 g body weight
  LA eff (% intact): 696 ± 36%
  SV (wet wt): 14.4 ± 1.0 mg/100 g body weight
  SV eff (% intact): 131 ± 19%
  VP (wet wt): 42.1 ± 1.6 mg/100 g body weight
  VP eff (% of intact): 80 ± 7%
Immature castrated rat, statement in words
  AR agonist activity: weights of the VP, SV and LA: exhibited AR agonist activity
